Experimental data from patent publication US20110015274A1, “FORM OF AN […] DERIVATIVE” (priority 2009, published 2011).
Values joined by “and” are separate entries in the source; they are usually repeats but may differ in a detail not shown here. Equal entries are not always repeated. Where two headings read alike, the source gives them in different places.

Experiments:
[1] = N2 at 77 K, relative pressures 0.05 to 0.3; mesylate
Description: The specific surface area values disclosed in the present disclosure have been obtained by means of a specific surface area analysis technique based on the BET (Brunauer, Emmett and Teller) theory, which is a well-accepted theory known in the art for the calculation of surface areas of solids by means of measuring their physical adsorption of gas molecules (See S. Brunauer, P. H. Emmett and E. Teller, J. Am. Chem. Soc., 1938, 60, 309). In particular, the specific surface area values measured have been calculated from the BET surface area plot obtained by measuring the quantity of nitrogen gas molecules adsorbed by a weighted amount of solid at different relative pressures (P/P0) within the range 0.05 to 0.3, at 77K. Precisely, the measurement of the adsorption of gas molecules was carried out by means of a Micromeritics™ Gemini V equipment having the characteristics as set out below. Namely, the gas used for adsorption measure was nitrogen gas. […] The sample for analysis was degassed (at 30° C. for 10 minutes and at 130° C. for 90 minutes). The determination of the adsorption of nitrogen was measured at 77K and for twelve relative pressures sufficiently dispersed within in the range of 0.05 to 0.3 (i.e. twelve absolute pressures in the range of 38.860001 mmHg to 230.464996 mmHg relative to a saturated pressure of 765.705017 mmHg).
The sample for analysis was degassed at 30° C. for 10 minutes and at 130° C. for 90 minutes.

[2] = by volume, wet dispersion in Isopar G, sonicated 3 minutes; mesylate
Description: The particle size parameters measured in the present disclosure have been obtained by means of laser light diffraction technique, and specifically by means of a Malvern Mastersizer S particle size analyzer having characteristics as set out below. Namely, the laser source used was a 2 milliwatt Helium/neon laser (633 nm wavelength); the detection system was a Fourier Transform lens system; the sample was run using a […]; the sample unit was a sample unit for wet measurement, and particularly was a MS1-Small volume Sample Dispersion Unit stirred cell. The wet dispersion was prepared by using a solution of 1.5 g of Soybean Lecithin in 200 mL of Isopar G as a sample dispersant, and the dispersion was controlled by stirring the unit cell. […] The characterization parameters (volume distributions) were measured for at least six times for each sample, and the result is a mean of said measured values for each sample.
A 300RF mm lens and a beam length of 2.4 mm were used. Preparation of sample dispersant: 1.5 g of Soybean Lecithin was added to 200 mL of Isopar G, and the mixture was mixed gently until Lecithin dissolved. […] The paste was delivered to the previously background and corrected measuring cell filled with dispersant (Isopar G) until the obscuration reached the desired level. The suspension was sonicated for 3 minutes. Volume distributions were obtained for at least six measures. After completing the measurements, the sample cell was emptied and cleaned, refilled with suspending medium, and the sampling procedure repeated again. For characterization, the values of D10, D50 and D90 (by volume) were specifically listed, each one being the mean of the measured values available for each characterization parameter.
The notation Dx [also written as D(v, 0.X)] means that X % of the particles have a diameter less than a specified diameter D. Thus a D90 [or D(v, 0.9)] of 100 μm means that 90% of the particles have a diameter less than 100 μm.

[3] = Protocol: The substantial absence of agglomeration in accordance with the present invention can be determined by visual inspection and/or by optical microscopy. […] That is, the smallest agglomerate to be observed by particle size analysis would be the agglomerate resultant of the union of a single crystal with another which would lead to an increase of 100% in the D90 and/or the D50 measured value.
The chromatographic separation was carried out in a Chiralpak IC, 5 μm, 250×4.6 mm I.D column; at 30° C.
The mobile phase was prepared by mixing 950 mL of n-hexane, 40 mL of 2-propanol, 10 mL of ethanol, 4 mL of trifluoroacetic acid and 1 mL of diethylamine. The mixture was mixed thoroughly.
The chromatograph was equipped with a 265 nm detector, and the flow rate was 1.4 mL per minute.
The test samples were prepared by dissolving the appropriate amount of sample to obtain 10 mg per mL in diluent. The diluent was prepared by mixing 89 mL of mobile phase, 10 mL of 2-propanol and 1 mL of diethylamine. The injection volume was 5 μL.
Samples were taken and analyzed after 1, 2, 3 and 6 months storage.

[4] = 25° C.±1° C., 80%±2% relative humidity, 24 hours
Protocol: The percentage increase in mass was calculated based on the hygroscopicity method described in the European Pharmacopoeia 5.0 (general chapter 5.11).

[5] = material with D90 of less than 6 μm stored at 25±2° C., 65±5% relative humidity, 5 days; cited from earlier work
[6] = cited from earlier work
[7] = heating at 80° C. for 72, 96 or 144 hours, and refluxing in isopropanol for 30 hours; cited from earlier work
[8] = WO 2008/019871 Example 8, prepared in isopropanol; cited from earlier work
[9] = cited from earlier work; remark: listed apart in the source

C#CCN[C@@H]1CCc2ccccc21.CS(=O)(=O)O [Example 1, R-(+)-N-propargyl-1-aminoindan mesylate]
Specific Surface Area (BET) [1]: 0.0722 m^2/g
Particle size D(v, 0.1) [2]: 30.6 μm
Particle size D(v, 0.5) [2]: 89.0 μm
Particle size D(v, 0.9) [2]: 163.6 μm

C#CCN[C@@H]1CCc2ccccc21.CS(=O)(=O)O [Example 2, R-(+)-N-propargyl-1-aminoindan mesylate]
Particle size D(v, 0.1) [2]: 37.0 μm
Particle size D(v, 0.5) [2]: 118.7 μm
Particle size D(v, 0.9) [2]: 246.7 μm

C#CCN[C@@H]1CCc2ccccc21.CS(=O)(=O)O [Example 3, R-(+)-N-propargyl-1-aminoindan mesylate]
Specific Surface Area (BET) [1]: 0.0474 m^2/g
Particle size D(v, 0.1) [2]: 37.4 μm
Particle size D(v, 0.5) [2]: 159.6 μm
Particle size D(v, 0.9) [2]: 404.2 μm

C#CCN[C@@H]1CCc2ccccc21.CS(=O)(=O)O [Example 4, R-(+)-N-propargyl-1-aminoindan mesylate]
Specific Surface Area (BET) [1]: 0.1434 m^2/g
Total impurities (HPLC) ([3]; 1 month, 40±2° C., 75%±5% relative humidity): <0.05%
Total impurities (HPLC) ([3]; 2 months, 40±2° C., 75%±5% relative humidity): <0.05%
Total impurities (HPLC) ([3]; 3 months, 40±2° C., 75%±5% relative humidity): <0.05%
Total impurities (HPLC) ([3]; 6 months, 40±2° C., 75%±5% relative humidity): <0.05%
Total impurities (HPLC) ([3]; Initial sample): <0.05%
% Mass increase [4]: 0.01%
Hygroscopicity (in words) [4]: not hygroscopic material
Particle size D(v, 0.1) [2]: 54.9 μm
Particle size D(v, 0.5) [2]: 208.5 μm
Particle size D(v, 0.9) [2]: 464.0 μm

C#CCN[C@@H]1CCc2ccccc21.CS(=O)(=O)O [Reference Example 1, R-(+)-N-propargyl-1-aminoindan mesylate]
Specific Surface Area (BET) [1]: 0.3216 m^2/g
Particle size D(v, 0.1) [2]: 17.4 μm
Particle size D(v, 0.5) [2]: 62.6 μm
Particle size D(v, 0.9) [2]: 118.0 μm

C#CCN[C@@H]1CCc2ccccc21.CS(=O)(=O)O [Reference Example 2, R-(+)-N-propargyl-1-aminoindan mesylate]
Specific Surface Area (BET) [1]: 0.2490 m^2/g
Particle size D(v, 0.1) [2]: 14.7 μm
Particle size D(v, 0.5) [2]: 60.2 μm
Particle size D(v, 0.9) [2]: 143.6 μm

C#CCN[C@@H]1CCc2ccccc21.CS(=O)(=O)O [Reference Example 3, R-(+)-N-propargyl-1-aminoindan mesylate]
Specific Surface Area (BET) [1]: 0.0274 m^2/g
Particle size D(v, 0.1) [2]: 127.5 μm
Particle size D(v, 0.5) [2]: 311.2 μm
Particle size D(v, 0.9) [2]: 611 μm and 611.1 μm

C#CCN[C@@H]1CCc2ccccc21.CS(=O)(=O)O [rasagiline mesylate, R-(+)-N-propargyl-1-aminoindan mesylate]
D90 after storage [5]: approximately 151 μm
d(0.9) or D90 after milling ([6]; after milling): 156-189 μm
d(0.9) or D90 before milling ([6]; samples containing large, irregular particles, initial): 386-598 μm
Appearance [7]: kept an appearance of white powder
Particle size d(0.1) [8]: 13.6±0.05 μm
Particle size d(0.5) [8]: 40.5±0.25 μm
Particle size d(0.9) [8]: 85.7±0.89 μm
Particles below 250 μm [8]: 100%
Behaviour of the powder on storage ([9]; 4 weeks at 40° C., 75% relative humidity in an opened container): transforms into a sticky powder
Behaviour of the powder on storage ([9]; 4 weeks at 60° C. in a closed glass bottle): agglomerates
Change in water content on storage ([9]; 4 weeks storage, WO 2008/019871 Example 5): no substantial changes
